Laboratory results as given in US5264427A, “20-substituted pregnene derivatives and their use as androgen synthesis inhibitors” (priority 1992, dated 1993).
pKi: −log10 of the molar value. Entries after “also recorded” stand apart in the source; their conditions may differ. Like-named read-outs stand apart in the source and are kept apart here.

Legend:
[1] = target: T1, rat testicular 17(alpha)-hydroxylase/C17,20-lyase (Rattus norvegicus, UniProt P11715); assay: Hydroxylase/lyase assay, rat testicular homogenates, [21-14C]progesterone (Example 4, Table 3); type: biochemical; conditions: 0.75 h
T1 construct: rat testicular homogenates (prepared from 220-250g adult male Sprague-Dawley rats); from tissue; host or cells: testes of adult male Sprague-Dawley rats, homogenate
T1 sequence (P11715 1-507): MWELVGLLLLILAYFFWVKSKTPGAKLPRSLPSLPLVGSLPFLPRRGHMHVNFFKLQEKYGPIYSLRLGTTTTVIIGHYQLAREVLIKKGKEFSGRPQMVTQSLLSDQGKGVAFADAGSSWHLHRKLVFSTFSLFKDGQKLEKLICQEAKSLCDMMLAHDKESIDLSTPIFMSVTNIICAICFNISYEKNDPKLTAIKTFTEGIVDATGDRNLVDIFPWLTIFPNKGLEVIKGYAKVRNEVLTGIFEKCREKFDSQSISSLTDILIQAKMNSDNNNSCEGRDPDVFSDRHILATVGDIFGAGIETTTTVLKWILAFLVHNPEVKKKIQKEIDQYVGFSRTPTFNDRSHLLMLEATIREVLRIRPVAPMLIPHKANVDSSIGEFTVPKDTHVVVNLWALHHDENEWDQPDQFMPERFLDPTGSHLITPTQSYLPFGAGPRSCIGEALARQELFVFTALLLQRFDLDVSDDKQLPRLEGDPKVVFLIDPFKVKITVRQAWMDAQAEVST
Experimental: The assay was performed by incubation of rat testicular homogenates (prepared from 220-250g adult male Sprague-Dawley rats, approx. 3.5 mg protein) with [21-^14 C]progesterone (40uM, 5×10^4 dpm), NADPH generating system and candidate inhibitors in phosphate buffer (pH 7.4, total volume 500ul) under oxygen for 45 min at 37° C. Two ml of choloroform was added to each tube to stop the reaction. The steriods were extracted with chloroform and the aqueous phase was treated with charcoal. The side chain cleavage product [2-^14 C]acetic acid in the aqueous phase was mixed with 3a70B counting cocktail and counted on the Rack Beta II liquid scintillation counter. The enzyme activity was determined from the conversion of progesterone P4 to [2-^14 C]acetic acid.

[2] = system: DHT in the prostate; assay: In vivo study: DHT concentration in the prostate of male rats (RIA); set-up: species or system rat (male Sprague-Dawley); conditions: 50 mg/kg/day sc, 21 days
Experimental: (§1) A group of 8 adult male Sprague-Dawley rats were injected sc with vehicle (0.3% hydroxypropyl cellulose, HPC) and a group of 8 rats were injected sc with a suspension of the compound I-23 in HPC (50 mg/kg body weight/day) every 24 hours for 21 days. The rats were autopsied at the last day, the ventral prostates and blood samples were collected. The prostate tissues were stored at -70° C. and the sera were separated first by centrifugation at 2,200 rpm, then stored at -15° C. until assayed. The DHT levels in the rat prostates were measured by radioimmunoassay (RIA) using testosterone/dihydrotestosterone RIA kit from Amersham Co. (Illinois). The testosterone levels in the rat sera were measured by using the [^125 I]-testosterone diagnostic kits (ICN Biochemics Inc.). The results obtained were analyzed by using Student t test.
(§2) The 4-pregnen-3-one-20(beta)-aldoxime was also studied for its effect on male rats in vivo. Male rats were daily treated with the compound at the dose of 50 mg/kg body weight injected subcutaneously for 21 days. […] The serum testosterone of these rats was measured as well.

[3] = system: serum testosterone; assay: In vivo study: serum testosterone of male rats (RIA); set-up: species or system rat (male Sprague-Dawley); conditions: 50 mg/kg/day sc, 21 days
Experimental: as §1, §2

[4] = target: T2, C17,20-lyase (Rattus norvegicus, UniProt P11715); assay: C17,20-lyase assay, rat testicular microsomes (Example 1, Table 1); type: biochemical
T2 construct: approximately 1 mg rat testicular microsomal protein in 450 microliters phosphate buffer; from tissue; host or cells: testes of adult male Sprague-Dawley rats (Charles River), microsomal fraction
T2 sequence (P11715 1-507): T1 sequence (P11715 1-507)
Experimental: (§3) Testes were obtained from 220°-250g adult male Sprague-Dawley rats (Charles River), immediately frozen in liquid nitrogen and stored at -70° C. After thawing in the ice bath, the testes were minced and homogenized in 0.25M sucrose (1:4 w/v), then centrifuged at 12,000×gfor 30 min and the resulting supernatant centrifuged at 105,000×g for one hour. The supernatant was then decanted and the pellet containing the microsomes was resuspended in 0.1M sodium phosphate buffer (pH 7.4) (2.5g wet weight of tissue/ 2 ml buffer). All the above procedures were performed at 4C. The microsomal fraction was stored at -70C. Just before use, microsomes were diluted to the concentration of 1.25 g wet weight of tissue/10 ml phosphate buffer.
(§4) C^17,20 -Lyase: The procedure for measurement of the C17,20 -lyase was similar to the procedure for the 17(alpha)-hydroxylase, except that the substrate was 17(alpha)-hydroxy-[[1,2,6,7-^3 H]-progesterone (various concentration, 10^5 dpm) and recovery markers were [4-^14 C]-labelled steroids. Carrier steroids (170HP4, A and T) were also added to locate the product areas on the TLC plates. The enzyme activity was determined from the percent conversion of 17(alpha)-hydroxy-[1,2,6,7-3H]-progesterone to A and T.
The purity of each steroid on the TLC was confirmed by two methods. First, the percent conversion of each compound in a half amount of the extract from one incubation were compared after separation of TLC and HPLC. The HPLC procedure has been described in detail previously. The solvent system used was methanol/acetonitrile/water (15.6:36.4:48). […] Secondly, after the first separation by TLC in solvent system A (hexane/ethyl acetate 65:35), the eluted steroids were chromatographed in solvent system B (chloroform/acetonitrile, 85:15).

[5] = target: T3, 17(alpha)-hydroxylase (Rattus norvegicus, UniProt P11715); assay: 17(alpha)-hydroxylase assay, rat testicular microsomes (Example 1, Table 1); type: biochemical
T3 construct: approximately 1 mg rat testicular microsomal protein in 450 microliters phosphate buffer; from tissue; host or cells: testes of adult male Sprague-Dawley rats (Charles River), microsomal fraction
T3 sequence (P11715 1-507): T1 sequence (P11715 1-507)
Experimental: as §3
(§5) The incubation was stopped by cooling the mixture in an ice bath and adding 2 ml ether to each incubation tube. The ^3 H-labelled steriods (progesterone P4; 17(alpha)-hydroxyprogesterone 170HP4, androstenedione A and testosterone T, 8,000dpm each) were added as recovery markers and the steroids were extracted with ether (2 ml×3). The ether was evaporated with air. Steroid carriers (P4, 17-0HP4, A and T, 4 micrograms each) were added to the extracts which were then applied to thin layer chromatography (TLC) plates for separation of the steroids. After development for 1.5 hours in hexanes/ethyl acetate, 65:35(v/v), the steroids were located by UV (254 nm) absorption, scraped off and eluted into scintillation vials with ether. After evaporating the ether, the steroids were dissolved in counting cocktail and the radioactivity measured. The recovery of steroids calculated from the ^3 H-labelled markers was between 80 to 90 percent and the enzyme activity was determined from the percentage conversion of [4-C^14 ]-progesterone to 170HP4, A and T.
The purity of each steroid on the TLC was confirmed by two methods. First, the percent conversion of each compound in a half amount of the extract from one incubation were compared after separation of TLC and HPLC. The HPLC procedure has been described in detail previously. The solvent system used was methanol/acetonitrile/water (15.6:36.4:48). The flow rate was 1 ml/min and pressure 2200 psi, the retention time of these steroids was P4 38.3 min, 170HP4 15.93 min, A 14.33 min, and T 11.43 min, respectively. Secondly, after the first separation by TLC in solvent system A (hexane/ethyl acetate 65:35), the eluted steroids were chromatographed in solvent system B (chloroform/acetonitrile, 85:15).
^1 Incubation of [4^14 Cprogesterone (various concentration,
microsome (approximately 1 mg protein) and NADPH generating system was
carried out at 37 C. under O2 for 30 min. The apparent Km for this

[6] = target: T4, 17(alpha)-hydroxylase/17,20-lyase enzyme (Rattus norvegicus, UniProt P11715); assay: 17(alpha)-hydroxylase/17,20-lyase inhibition, rat testicular microsomes (Example 1); type: biochemical; conditions: according to Ki values, result in words; listed as 4-pregnen-3-one-20(beta)-aldoxime
T4 sequence (P11715 1-507): T1 sequence (P11715 1-507)
Experimental: as §3
as §5, with “After development for 1.5 hours in hexanes/ethyl acetate, 65:35(v/v), the steroids were located by UV (254 nm) absorption, scraped off and eluted into scintillation vials with ether.” left out
as §4, with “Carrier steroids (170HP4, A and T) were also added to locate the product areas on the TLC plates.” left out

[7] = target: T5, 17(alpha)-hydroxylase/C17,20-lyase (Rattus norvegicus, UniProt P11715); assay: Hydroxylase/lyase assay, rat testis homogenates, [21-14C]-progesterone side-chain cleavage (Examples 2 and 3, Table 2); type: biochemical; conditions: progesterone 40 microM, 45 min
T5 construct: with rat testis homogenates (2.7 mg protein in 0.5 ml phosphate buffer); from tissue; host or cells: rat testis homogenate
T5 sequence (P11715 1-507): T1 sequence (P11715 1-507)
Experimental: Compounds I-16 and I-25 were synthesized according to known procedures. The compounds were then assayed for their ability to inhibit the 17(alpha)-hydroxylase/C17,20 -lyase enzyme and the 5(alpha)-reductaseenzyme. The hydroxylase/lyase assay was carried out by incubation of [21-^14 C]-progesterone (40 microM, 70,000 dpm) and candidate inhibitors with rat testis homogenates (2.7 mg protein in 0.5 ml phosphate buffer), NADPH generating system under oxygen for 45 minutes. The enzyme activity was measured according to the conversion of progesterone to the product of C17,20 -side chain cleavage ([2-^14 C]-acetic acid). […] The results were based on the TLC separation.

[8] = target: T6, 5(alpha)-reductase (Homo sapiens, UniProt P31213); assay: 5(alpha)-reductase assay, human prostatic (BPH) tissue homogenates (Example 1, Table 1); conditions: result in words
T6 sequence (P31213 1-254): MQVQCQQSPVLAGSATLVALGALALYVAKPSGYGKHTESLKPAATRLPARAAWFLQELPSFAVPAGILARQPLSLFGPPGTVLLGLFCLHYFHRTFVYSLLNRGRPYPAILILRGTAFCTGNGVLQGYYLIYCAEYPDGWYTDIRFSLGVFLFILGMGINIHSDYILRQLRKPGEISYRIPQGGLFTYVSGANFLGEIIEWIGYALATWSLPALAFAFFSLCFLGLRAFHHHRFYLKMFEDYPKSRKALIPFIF
Experimental: Tissue was homogenized in 0.1M phosphate buffer (60 mg wet weight of tissue/ ml buffer, pH 7.4) at 4C and the homogenates were diluted with an equal volume of buffer before use.
5(alpha)-reductase: [7-^3 H]testosterone (10^6 dpm) was incubated for 30 minutes at 37° C. with the NADPH generating system, homogenate of human prostatic tissue (30mg wet weight of tissue/1 ml buffer) and the candidate inhibitors at concentrations ranging from 0.1-10uM. […] The steroids were extracted with ether and the extracts chromatographed on TLC (chloroform: ether 95:5). […] The steroids were scraped from the plate and radioactivity measured.

[9] = in vivo; cited from earlier work

| % Inhibition of 17(alpha)hydroxylase/lyase, [I] = 10 × [S] ([7]; [I] = 10 × [S]) | % Inhibition of 17(alpha)hydroxylase/lyase, [I] = [S] ([7]; [I] = [S]) | inhibition of 5(alpha)-reductase in the human prostate [8] | pKi ([4]; rat testicular microsomes, 17(alpha)-hydroxyprogesterone substrate, 30 min, 37 C, N.I. = no inhibition, read-out: C17,20-lyase Ki) | pKi ([5]; rat testicular microsomes, progesterone substrate, 30 min, 37 C, N.I. = no inhibition, read-out: 17(alpha)-hydroxylase Ki) | Compound | inhibition at 400 µM ([1]; pH 7.4, read-out: Inhibition of 17(alpha)-hydroxylase/C17,20-lyase (%), [I] = 10 × [S]) | inhibition at 40 µM ([1]; pH 7.4, read-out: Inhibition of 17(alpha)-hydroxylase/C17,20-lyase (%), [I] = [S]) | prostatic DHT levels, effect in words [2] | serum testosterone ([3]; n=8, control 4.03±0.64, P<0.005) | plasma testosterone concentrations, effect in words ([3]; rats) | pKi [4] | potency versus Ketoconazole, C17,20-lyase ([4]; FIG. 2, result in words) | type of inhibition of the lyase ([4]; Lineweaver-Burk) | potency relative to ketoconazole for rat testicular C17,20-lyase ([4]; according to the Ki values) | pKi [5] | type of inhibition of the hydroxylase ([5]; Lineweaver-Burk) | selectivity lyase versus hydroxylase [6] | cortisol production and side-effects, in words [9] |
| --- | --- | --- | --- | --- | --- | --- | --- | --- | --- | --- | --- | --- | --- | --- | --- | --- | --- | --- |
| – | – | – | – | – | C[C@H](C=NO)[C@H]1CC[C@H]2[C@@H]3CCC4=CC(=O)CC[C@]4(C)[C@H]3CC[C@]12C [Compound I-23, 4-pregnen-3-oxo-20(beta)-carboxaldehyde oxime] | 84% | 39.3% | effective in reducing | 1.60±0.37 ng/ml serum | effective in reducing plasma testosterone concentrations | 5.97 | more potent than Ketoconazole | competitive inhibition | approximately 3.5 fold | 4.51 | competitive inhibition | more specific inhibitor for the lyase than for the hydroxylase; also recorded: preferentially inhibited the lyase rather than the hydroxylase step | – |
| 65.80% | 31.53% | did not inhibit | 5.44 | 4.40 | CC(=O)N1CCN(c2ccc(OCC3COC(Cn4ccnc4)(c4ccc(Cl)cc4Cl)O3)cc2)CC1 (stereo not drawn) [Ketoconazole, reference compound] | – | – | – | – | – | – | – | – | – | – | – | – | reduces cortisol production and has a number of side-effects |
